# Where no end group is shown, it is not given here.
# B1: hRNase7: human ribonuclease 7 of the RNaseA superfamily, parental protein of RN7 (protein, UniProt Q9H1E1 29-156, looked up)
# Ribonuclease 7: KPKGMTSSQWFKIQHMQPSPQACNSAMKNINKHTKRCKDLNTFLHEPFSSVAATCQTPKIACKNGDKNCHQSHGAVSLTMCKLTSGKHPNCRYKEKRQNKSYVVACKPPQKKDSQQFHLVPVHLDRVL
# Assays:
# C. albicans [1] = conditions: as previously reported; cited from earlier work
# in vitro = type: cell-based; conditions: human
# Protocol: The peptide cytoxicity was evaluated using the human monocytic THP1 cell line. The assay was performed in 96-well cell culture flat-bottom plates (Costar; Appleton Woods) in triplicate. THP-1 cultures were induced to macrophages by adding 2 ng/mL of colony-stimulating factor (R&D Systems, Germany). Peptides were serially diluted from 50 to 0.1 µM and added to 5 × 10^5 cells/mL. After 48 h of incubation, the cells were washed twice with 1× PBS, and fresh RPMI-1640 complete medium was added. Plates were then treated with 30 μL of a freshly prepared 0.01% resazurin solution and incubated overnight at 37 °C. The following day the change in color was observed and the fluorescence intensity was measured (λex560 nm, λem590 nm). The 50% growth inhibitory concentration (GIC50) was determined based on the resazurin fluorescence signal.
# C. albicans [2] = assay: Cell survival assay (Live/Dead kit); type: cell-based, Candida albicans (ATCC 90028); conditions: survival percentage at final incubation time (120 min), mean ± SEM
# Protocol: C. albicans viability assay was performed using the Live⁄Dead® microbial viability kit as previously described. Candida strain was grown at 30 °C to ~5 × 10^6 cells/mL, centrifuged at 5000× g for 5 min and resuspended in a 0.85% NaCl solution, in accordance with the manufacturer instructions. C. albicans cell culture was stained using a SYTO®9/propidium iodide 1:1 mixture. SYTO9/propidium iodide staining allowed us to monitor both the candidal viability in planktonic cell cultures and within the biofilm, as the SYTO9 dye is able to permeate the cell membrane and stain the nucleic acid of viable cells; whereas, when the cell membrane is damaged, propidium iodide can diffuse into the cell and displace SYTO9. The method allows the labelling of intact viable cells and membrane compromised cells, which are labelled in green and red respectively, referred to as live and dead cells. The viability kinetics were monitored using a Cary Eclipse Spectrofluorimeter (Varian Inc., Palo Alto, CA, USA). Cell viability profiles were registered after adding from 1 to 5 µM of final peptide concentration. To calculate the cell viability, the fluorescence in the range of 510–540 nm and 620–650 nm were integrated to obtain the SYTO®9 (live cell) and the propidium iodide (dead cell) signals respectively. Then, the percentage of live bacteria was represented as a function of time.
# C. albicans cells = assay: Minimal agglutination activity (MAC); type: cell-based, Candida albicans (ATCC 90028); conditions: for MAC (minimal agglutination concentration): C. albicans in PBS, 1 h at 30 °C, peptides 0.01 to 20 μM, visual inspection, mean ± SEM, three replicates of two independent experiments
# Protocol: C. albicans cells were grown at 30 °C to an OD592 of 1.0, diluted 10 times, centrifuged at 5000× g for 2 min, and resuspended in 1× PBS. An aliquot of 100 μL of the cellular suspension was treated with increasing peptide concentrations (from 0.01 to 20 μM) and incubated at 30 °C for 1 h. The aggregation behavior was observed by visual inspection, and the agglutinating activity is expressed as the minimum agglutinating concentration of the sample tested, as previously described. Images were taken using a 50× stereoscope microscope.
# [3] = system: C. albicans cytoplasmic membrane; assay: Cell membrane depolarization assay (DiSC3); type: cell-based, Candida albicans (ATCC 90028); conditions: mean ± SEM; for Membrane Depolarization ED50: DiSC3 probe, peptide 0.1 to 5 µM, 50 min, 20 °C, Hepes-KOH pH 7.2; for Membrane Depolarization Depolmax: maximum fluorescence value at final incubation time with 2 µM peptide, DiSC3
# Protocol: Membrane depolarization was assayed by monitoring the DiSC3 fluorescence intensity change in response to changes in transmembrane potential as described previously. C. albicans cells were grown at 30 °C to the mid-exponential (OD592~0.4) and resuspended in 5 mM Hepes-KOH, 20 mM glucose and 100 mM KCl at pH 7.2. DiSC3 was added to a final concentration of 0.4 µM. Changes in the fluorescence for alteration of the cell plasma membrane potential were continuously monitored at 20 °C at an excitation wavelength of 620 nm and an emission wavelength of 670 nm. When the dye uptake was maximal, as indicated by a stable reduction in the fluorescence as a result of quenching of the accumulated dye in the membrane interior, protein in 5 mM Hepes-KOH buffer at pH 7.2 was added at a final peptide concentration from 1 to 5 μM and incubated for 50 min, to calculate the ED50 concentration. Maximum depolarization was calculated when the fluorescence signal was fully stabilized, and the depolarization percentage was calculated taking Triton X-100 at 10% as a maximum reference value. The time required to reach a stabilized maximum fluorescence reading was recorded for each condition, and the time required to achieve half of total membrane depolarization was estimated from the nonlinear regression curve. All conditions were assayed in duplicate.
# C. albicans [4] = assay: Minimum fungicidal concentration by CFU counting; type: cell-based, Candida albicans (ATCC 90028); conditions: for MFC100, PBS / MFC100, Sabouraud Broth: C. albicans ~2 × 10^5 cells/mL, CFU counting, peptides 20 to 0.1 µM, mean ± SEM, two independent experiments in triplicate; for MFC100, PBS: 4 h at 30 °C in PBS; for MFC100, Sabouraud Broth: 4 h at 30 °C in Sabouraud nutrient broth
# Protocol: C. albicans was cultured overnight in Sabouraud Dextrose broth at 30 °C, sub-cultured the next day in fresh media and grown to an optical density of 0.4 at 592 nm (mid log-phase). Cells were washed twice and diluted to ~2 × 10^5 cells/mL. Peptides serially diluted were added to the cells from 20 to 0.1 µM final concentration. C. albicans was incubated at 30 °C during 4h in Sabouraud nutrient broth or PBS. Following, the samples were plated onto Sabouraud Petri dishes and incubated at 30 °C overnight. Antifungal activity was expressed as the MFC, defined as the lowest peptide concentration required for more than 99% of microorganism killing. MFC of each peptide was determined from two independent experiments performed in triplicate for each concentration.
# [5] = system: C. albicans planktonic cells; type: cell-based, Candida albicans (ATCC 90028); conditions: 4 h
# Protocol: Cell viability of C. albicans was assayed using the BacTiter-Glo™ Microbial Cell Viability kit (Promega), which measures the number of viable cells, by ATP quantification. ATP, as an indicator of metabolically active cells, is indirectly measured by a coupled luminescence detection assay. The luminescent signal is proportional to the amount of ATP required for the conversion of luciferin into oxyluciferin in the presence of luciferase. An overnight culture of C. albicans was used to inoculate fresh Sabouraud liquid culture, and logarithmic phase culture was grown to an OD592 of 0.2. RNase derived N-terminal peptides were added to 0.1 mL of cell culture at a final concentration from 0.025 to 20 μM. The C. albicans viability was followed after 4 h of incubation at 30 °C. 50 µL of incubation culture were mixed with 50 µL of BacTiter-Glo^TM reagent in a microtiter plate following the manufacturer instructions and incubated at room temperature for 10 min. Luminiscence was read on a Victor3 plate reader (PerkinElmer, Waltham, MA, USA) with a 1-s integration time. IC50 values were calculated by fitting the data to a dose-response curve.
# [6] = system: C. albicans cytoplasmic membrane; assay: Cell membrane permeabilization (Sytox Green uptake); type: cell-based, Candida albicans (ATCC 90028); conditions: mean ± SEM; for Membrane Permeabilization Max. Perm.: Sytox Green fluorescence, PBS, 50 min; for Membrane Permeabilization Perm.: maximum at final incubation time (50 min), referred to positive control 10 % Triton X-100, Sytox Green
# Protocol: Membrane permeabilization was evaluated by using the Sytox® Green uptake assay. Sytox® Green is a cationic cyanine dye which is unable to cross the membrane. When cells’ plasma membrane integrity is compromised, the dye enters into the cell, binding to DNA and triggering a large increase of the fluorescence signal. For Sytox® Green assays, C. albicans cells were grown to mid-exponential growth phase at 30 °C and then centrifuged, washed, and resuspended in PBS. Cell suspensions in PBS (~2 × 10^6 cells/mL) were incubated with 1 μM Sytox® Green for 15 min in the dark prior to the influx assay. At 2 to 4 min after initiating data collection, proteins at 1 and 5 μM final concentration were added to the cell suspension, and the increase in Sytox® Green fluorescence was measured (excitation wavelength at 485 nm and emission at 520 nm) for 50 min in a Cary Eclipse spectrofluorimeter. Fungal cell lysis with 10% Triton X-100 was taken as the maximum fluorescence reference value.
molecule,measurement,setting,value
C[C@@H]1[C@H](O)[C@@H](C)/C=C/C=C/C=C/C=C/C=C/C=C/C=C/[C@H](O[C@@H]2O[C@H](C)[C@@H](O)[C@H](N)[C@@H]2O)C[C@@H]2O[C@](O)(C[C@@H](O)C[C@@H](O)[C@H](O)CC[C@@H](O)C[C@@H](O)CC(=O)O[C@H]1C)C[C@H](O)[C@H]2C(=O)O [amphotericin B],MFC taken as internal reference,C. albicans [1],0.5 µM
KESRAKKFQRQHMDSDSSPSSSSTYSNQMMRRRNMTQGRSKPVNTFVH-NH2 [RN1],IC50 at 48 h,in vitro,> 50000 nM
same,Cell Survival,C. albicans [2],67 ± 1%
same,MAC (minimal agglutination concentration),C. albicans cells,1.80 ± 0.40 µM
same,Membrane Depolarization ED50,[3],4630 ± 700 nM
same,Membrane Depolarization Depolmax,[3],65.2 ± 4.6 AU
same,"MFC100, PBS",C. albicans [4],3.75 ± 0.30 µM
same,"MFC100, Sabouraud Broth",C. albicans [4],3.75 ± 0.50 µM
same,IC50,[5],2100 ± 200 nM
same,Membrane Permeabilization Max. Perm.,[6],26.1 ± 0.4 AU
same,Membrane Permeabilization Perm.,[6],8.3 ± 0.4%
KPKDMTSSQWFKTQHVQPSPQASNSAMSIINKYTERSKDLNTFLH-NH2 [RN8],IC50 at 48 h,in vitro,> 50000 nM
same,IC50,[5],> 10000 nM
KPKGMTSSQWFKIQHMQPSPQASNSAMKNINKHTKRSKDLNTFLH-NH2 [RN7],IC50 at 48 h,in vitro,> 50000 nM
same,IC50,[5],450 ± 100 nM
KPPQFTKAQWFAIQHISLNPPKSTIAMKAINNYKWKSKNQNTFLK-NH2 [RN3K],IC50 at 48 h,in vitro,> 50000 nM
same,IC50,[5],2080 ± 270 nM
KPPQFTWAQWFETQHINMTSQQSTNAMQVINNYQRRSKNQNTFLL-NH2 [RN2],IC50 at 48 h,in vitro,> 50000 nM
same,IC50,[5],> 20000 nM
QDGMYQRFLRQHVHPEETGGSDRYSNLMMQRRKMTLYHSKRFNTFIH-NH2 [RN4],IC50 at 48 h,in vitro,> 50000 nM
same,Cell Survival,C. albicans [2],65 ± 10%
same,MAC (minimal agglutination concentration),C. albicans cells,0.40 ± 0.10 µM
same,Membrane Depolarization ED50,[3],3580 ± 1600 nM
same,Membrane Depolarization Depolmax,[3],76.2 ± 4.8 AU
same,"MFC100, PBS",C. albicans [4],3.75 ± 0.20 µM
same,"MFC100, Sabouraud Broth",C. albicans [4],4.00 ± 0.50 µM
same,IC50,[5],1800 ± 300 nM
same,Membrane Permeabilization Max. Perm.,[6],117 ± 2 AU
same,Membrane Permeabilization Perm.,[6],38.7 ± 0.1%
QDNSRYTHFLTQHYDAKPQGRDDRYSESIMRRRGLTSPSKDINTFIH-NH2 [RN5],IC50 at 48 h,in vitro,> 50000 nM
same,Cell Survival,C. albicans [2],39 ± 0.5%
same,MAC (minimal agglutination concentration),C. albicans cells,1.80 ± 0.40 µM
same,Membrane Depolarization ED50,[3],1510 ± 100 nM
same,Membrane Depolarization Depolmax,[3],39.1 ± 5.1 AU
same,"MFC100, PBS",C. albicans [4],>20 µM
same,"MFC100, Sabouraud Broth",C. albicans [4],>20 µM
same,MFC,C. albicans [4]; medium not specified,inactive
same,IC50,[5],> 20000 nM
same,Membrane Permeabilization Max. Perm.,[6],66.5 ± 0.6 AU
same,Membrane Permeabilization Perm.,[6],21.8 ± 0.4%
RPPQFTRAQWFAIQHISLNPPRSTIAMRAINNYRWRSKNQNTFLR-NH2 [RN3],IC50 at 48 h,in vitro,> 50000 nM
same,IC50,[5],220 ± 50 nM
RPRGMTSSQWFRIQHMQPSPQASNSAMRNINRHTRRSRDLNTFLH-NH2 [RN7R],IC50 at 48 h,in vitro,> 50000 nM
same,IC50,[5],1620 ± 320 nM
WPKRLTKAHWFEIQHIQPSPLQSNRAMSGINNYTQHSKHQNTFLH-NH2 [RN6],IC50 at 48 h,in vitro,> 50000 nM
same,IC50,[5],1800 ± 200 nM
colistin,MFC taken as internal reference,C. albicans [1],0.25 µM
B1,agglutination of C. albicans by the parental hRNase,C. albicans cells; protein tested up to 20 μM,not

# From publication PMC6770517, “Insight into the Antifungal Mechanism of Action of Human RNase N-terminus Derived Peptides” (International Journal of Molecular Sciences, 2019)
